Five cell lines from the supplement of paper PMC10307832 can be followed below.

Experiment in all cases: relative viability (nuclei count vs DMSO), 5 days (fraction); higher = more cells survive
Compound in experiment [1]: COC1=CC=C(C=C1)COC2=C(C=C(C=C2)CC3=CN=C(N=C3N)N)OC [GW-2580] + COc1cc2c(Oc3ccc(NC(=O)C4(C(=O)Nc5ccc(F)cc5)CC4)cc3F)ccnc2cc1OCCCN1CCOCC1 [Foretinib] (partner 0.25 µM)
Summed up:
(§1)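 One day after seeding in 1536-well plates, lung cancer cell lines were dosed by pin tool. Dosing was either single-drug or a fixed anchor-drug dose plus five library-drug doses (not always all listed) in √10 steps. After 5 days, nuclei were stained in one fix-and-stain step and counted on 4× images, and relative viability is the nuclei count of treated wells over that of vehicle wells, given as the median of duplicate plates.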

Compound in experiment [2]: COC1=CC=C(C=C1)COC2=C(C=C(C=C2)CC3=CN=C(N=C3N)N)OC [GW-2580] + O=C(CCCCCCC(=O)Nc1ccccc1)NO [Vorinostat] (partner 1 µM)
In a few lines: as §1

Compound in experiment [3]: COC1=CC=C(C=C1)COC2=C(C=C(C=C2)CC3=CN=C(N=C3N)N)OC [GW-2580] + NC(=O)Nc1cc(-c2cccc(F)c2)sc1C(=O)N[C@H]1CCCNC1 [AZD7762] (partner 0.2 µM)
Summed up:
as §1

Compound in experiment [4]: COC1=CC=C(C=C1)COC2=C(C=C(C=C2)CC3=CN=C(N=C3N)N)OC [GW-2580] + Nc1ncn([C@H]2C[C@H](O)[C@@H](CO)O2)c(=O)n1 [Decitabine] (partner 2 µM)
Summed up: as §1

In the case of EPLC-272H, the relative viability in experiment [1] (first compound 0.08 µM) amounted to 0.73; in experiment [1] (first compound 0.8 µM), 0.766; in experiment [1] (first compound 8 µM) it was 0.605; in experiment [2] (first compound 0.08 µM) it was 0.381; in experiment [2] (first compound 0.8 µM), 0.409; in experiment [2] (first compound 2.53 µM) it was 0.301. Further, the relative viability in experiment [2] (first compound 8 µM) is 0.334; in experiment [3] (first compound 0.08 µM), 0.221; in experiment [3] (first compound 0.8 µM) it was 0.315; in experiment [3] (first compound 8 µM) it was 0.297; in experiment [4] (first compound 0.08 µM) it was 0.391; in experiment [4] (first compound 0.8 µM), 0.366. The relative viability in experiment [4] (first compound 8 µM) worked out at 0.368.

As for H3255, the relative viability was 0.859 in experiment [1] (first compound 0.08 µM); 0.835 in experiment [1] (first compound 0.8 µM); 0.742 in experiment [1] (first compound 2.53 µM); 0.829 in experiment [1] (first compound 8 µM); 0.802 in experiment [2] (first compound 0.08 µM); 0.875 in experiment [2] (first compound 0.8 µM). The relative viability turned out to be 0.75 in experiment [2] (first compound 2.53 µM); 0.771 in experiment [2] (first compound 8 µM); 0.876 in experiment [3] (first compound 0.08 µM); 1.22 in experiment [3] (first compound 0.8 µM); 0.817 in experiment [3] (first compound 2.53 µM); 0.758 in experiment [3] (first compound 8 µM). Also, the relative viability in experiment [4] (first compound 0.08 µM) is 0.564; in experiment [4] (first compound 0.8 µM), 0.613; in experiment [4] (first compound 2.53 µM), 0.557; in experiment [4] (first compound 8 µM) it was 0.576.

For the cell line HARA, the relative viability in experiment [1] (first compound 0.08 µM) came out at 1.06; in experiment [1] (first compound 0.8 µM), 0.849; in experiment [1] (first compound 2.53 µM) it was 1.03; in experiment [1] (first compound 8 µM) it was 0.676; in experiment [2] (first compound 0.08 µM), 0.561; in experiment [2] (first compound 0.8 µM) it was 0.601. For the same cell line, the relative viability stood at 0.548 in experiment [2] (first compound 2.53 µM); 0.588 in experiment [2] (first compound 8 µM); 0.302 in experiment [3] (first compound 0.08 µM); 0.252 in experiment [3] (first compound 0.8 µM); 0.294 in experiment [3] (first compound 2.53 µM); 0.221 in experiment [3] (first compound 8 µM). In addition, the relative viability in experiment [4] (first compound 0.08 µM) was 0.658; in experiment [4] (first compound 0.8 µM) it was 0.617; in experiment [4] (first compound 2.53 µM), 0.599; in experiment [4] (first compound 8 µM) it was 0.409.

Consider HCC-15, for which the relative viability in experiment [1] (first compound 0.08 µM) came to 1.06; in experiment [1] (first compound 0.8 µM), 1.09; in experiment [1] (first compound 2.53 µM) it was 1.01; in experiment [1] (first compound 8 µM), 0.958; in experiment [2] (first compound 0.08 µM), 0.866; in experiment [2] (first compound 0.8 µM), 1.07. For the same cell line, the relative viability in experiment [2] (first compound 2.53 µM) amounted to 0.787; in experiment [2] (first compound 8 µM), 0.75; in experiment [3] (first compound 0.08 µM), 1.02; in experiment [3] (first compound 0.8 µM) it was 1.44; in experiment [3] (first compound 2.53 µM), 1.21; in experiment [3] (first compound 8 µM), 1.39. Besides, the relative viability was 0.631 in experiment [4] (first compound 0.08 µM), 0.818 in experiment [4] (first compound 0.8 µM), 0.636 in experiment [4] (first compound 2.53 µM) and 0.69 in experiment [4] (first compound 8 µM).

Turning to HCC-44, the relative viability in experiment [2] (first compound 0.08 µM) was 1.13; in experiment [2] (first compound 0.8 µM), 1.08; in experiment [2] (first compound 2.53 µM), 1.19; in experiment [2] (first compound 8 µM) it was 1.1; in experiment [3] (first compound 0.08 µM), 0.994; in experiment [3] (first compound 0.8 µM), 1. In addition, the relative viability was determined as 1.03 in experiment [3] (first compound 2.53 µM); 0.999 in experiment [3] (first compound 8 µM); 0.97 in experiment [4] (first compound 0.08 µM); 0.912 in experiment [4] (first compound 0.8 µM); 0.974 in experiment [4] (first compound 2.53 µM); 1.08 in experiment [4] (first compound 8 µM).
